Data reported in patent US8841482B2, “Method for synthesizing rare earth metal extractant” (Shin-Etsu Chemical Co., Ltd., priority 2010, dated 2014).

Experiment: extraction/separation performance test (solvent extraction of Pr/Nd, back extraction, ICP atomic emission)
Format: physicochemical
Conditions: aqueous Pr:Nd 1:1, 0.1 mol/L Pr+Nd, 20° C.
Protocol: The stoichiometric amount of the reaction product, D2EHDGAA in Example 1 or Comparative Example 1 was diluted with hexanol to form an organic solution having a D2EHDGAA concentration of 0.3 mol/L, which might become an organic phase.
A mixed rare earth metal aqueous solution was prepared by dissolving praseodymium chloride and neodymium chloride in water in a molar ratio Pr:Nd of 1:1 and a concentration of 0.1 mol/L of Pr+Nd to form an aqueous solution, which might become an aqueous phase. A separatory funnel was charged with 100 mL of the organic solution and 100 mL of the aqueous solution and shaken at 20° C. for about 20 minutes to effect extraction. After equilibrium was reached, the liquid was allowed to separate into organic and aqueous phases. A separatory funnel was charged with 100 mL of the thus separated organic phase and 100 mL of 5N hydrochloric acid and shaken at 20° C. for about 20 minutes whereby the rare earth element once extracted in the organic phase was back extracted in the hydrochloric acid aqueous solution. The concentrations of praseodymium and neodymium in the aqueous phase and the back-extracted hydrochloric acid aqueous solution were measured by an ICP atomic emission spectrometer ICP-7500 (Shimadzu Corp.).
The stoichiometric amount of the reaction product, D2EHDGAA in Example 5, 6 or Comparative Example 5, 6 was diluted with toluene to form an organic solution having a D2EHDGAA concentration of 0.3 mol/L, which might become an organic phase.

| Structure (SMILES) | Nd/Pr separation factor (D2EHDGAA 0.3 mol/L in kerosene) | Phase separation (D2EHDGAA 0.3 mol/L in kerosene) | Nd/Pr separation factor (D2EHDGAA 0.3 mol/L in toluene) | Phase separation (D2EHDGAA 0.3 mol/L in toluene) | further results |
| --- | --- | --- | --- | --- | --- |
| CCCCC(CC)CN(CC(CC)CCCC)C(=O)COCC(=O)O (stereo not drawn) [Example 4, N,N-bis(2-ethylhexyl)-3-oxapentane-1,5-amic acid] | 2.5 | definite |  |  |  |
| CCCCC(CC)CN(CC(CC)CCCC)C(=O)COCC(=O)O (stereo not drawn) [Example 1, N,N-bis(2-ethylhexyl)-3-oxapentane-1,5-amic acid] |  |  |  |  | Nd/Pr separation factor (D2EHDGAA 0.3 mol/L in hexanol): 2.5; Phase separation (D2EHDGAA 0.3 mol/L in hexanol): definite |
| CCCCC(CC)CN(CC(CC)CCCC)C(=O)COCC(=O)O (stereo not drawn) [Example 6, N,N-bis(2-ethylhexyl)-3-oxapentane-1,5-amic acid] |  |  | 2.5 | definite |  |
| CCCCC(CC)CN(CC(CC)CCCC)C(=O)COCC(=O)O (stereo not drawn) [Example 5, N,N-bis(2-ethylhexyl)-3-oxapentane-1,5-amic acid] |  |  | 2.5 | definite |  |
| CCCCC(CC)CN(CC(CC)CCCC)C(=O)COCC(=O)O (stereo not drawn) [Example 3, N,N-bis(2-ethylhexyl)-3-oxapentane-1,5-amic acid] | 2.5 | definite |  |  |  |
| CCCCCCCCN(CCCCCCCC)C(=O)COCC(=O)O [Example 2, N,N-dioctyl-3-oxapentane-1,5-amic acid] |  |  |  |  | Nd/Pr separation factor (DODGAA 0.3 mol/L in hexanol): 2.5; Phase separation (DODGAA 0.3 mol/L in hexanol): definite |
